Source: patent publication US9199983B2, “3-aryl-6-aryl-[1,2,4]triazolo[4,3-α]pyridines as inhibitors of cell proliferation and the use thereof” (priority 2010, dated 2015)
Structures can show the parent of a compound that is named as a salt.

Legend:
[1] = tested on: liver cancer cell line SMMC7721; assay: MTT cancer cell cytotoxicity assay, SMMC7721; assay type: cell-based, human; settings: Homo sapiens, SMMC-7721, SMMC7721 cells, 48-72 h
Description: (§1) Identification of 3-(2-methoxyphenyl)-6-(4-methoxyphenyl)-[1,2,4]triazolo[4,3-a]pyridine and analogs as inhibitors of cell proliferation that were evaluated with standard MTT cancer cell cytotoxicity assay (IC50)
(§2) Human lung cancer cell line A549, breast cancer cell line T47D, liver cancer cell lines HepG2 and SMMC7721 as well as a mouse melanoma cell line B16F10 were used in the study. The cells were cultured in corresponding growth media recommended by American Type Culture Collection (ATCC) with the supplementation of penicillin G (100 U/ml)/streptomycin (100 µg/ml), and 10% fetal bovine serum (Hangzhou Sijiqing Biological Engineering Materials, Co., Ltd. China) at 37° C. in a humidified atmosphere containing 5% CO2. Cells at about 80% confluency were harvested by trypsinization. Cells were centrifuged, re-suspended in fresh growth media and counted. Corresponding numbers of cells were seeded to 96-well cell culture plates (HepG2 cell, T-47D and A549 cells at 3000 cells/well, SMMC-7721 cells at 5000 cells/well and B16F10 cells at 2000 cells/well) in a total volume of […]. Cells were incubated in CO2 incubator over night to allow the cells to attach. In next day, […] of medium containing testing (from 10 μM to 1 nM) or reference compounds was added to each well of the cells. Media without compound were used as 100% control. Cells were treated with each concentration of compounds in triplicates to ensure data accuracy. Cells were incubated with compounds in CO2 incubator for an additional 48-72 h at 37° C. After incubation, cells were removed from the CO2 incubator and […] of 5 mg/ml MTT (3-(4,5-dimethylthiazole-2-yl)-2,5-diphenyltetrazoliumbromide, Sigma) solution in PBS was added to each well. Cells were returned to CO2 incubator and incubated for additional 4 h. After the incubation, media were removed by aspiration and […] DMSO was added to each well. Plates were sealed with aluminum foil and shaked mildly on an orbital shaker for 10 min at room temperature. The absorption was measured at 550 nm with a plate reader (Varioskan Flash, Thermo Fisher Scientific) with 660 nm reading used as background control. The relative absorbance readings were calculated by subtracting readings at 660 nm from that at 550 nm. The relative absorbance was plotted again the concentrations of the testing compounds and the plots were fitted with a one-site lg(IC50) equation using Prism 5 software (GraphPad Software, Inc). The equation used in the curve fitting is as follows: relative absorbance reading=background reading+(maximal reading−brackground reading)/(1+10 ^(compound concentration-log IC50)). The background reading used in the calculation was obtained with 100% cell death using a reference anticancer drug, whereas the maximal reading was obtained in the well with no added compound. The IC50 value calculated from the equation represents the cytotoxic potency of a particular compound.

[2] = tested on: liver cancer cell line HepG2; assay: MTT cancer cell cytotoxicity assay, HepG2; assay type: cell-based, human; settings: Homo sapiens, HepG2 cells, 48-72 h
Description: as §1, §2

[3] = tested on: breast cancer cell line T47D; assay: MTT cancer cell cytotoxicity assay, T47D; assay type: cell-based, human; settings: Homo sapiens, T47D cells, 48-72 h
Description: as §1, §2

[4] = tested on: Human lung cancer cell line A549; assay: MTT cancer cell cytotoxicity assay, A549; assay type: cell-based; settings: Homo sapiens, A549 cells, 48-72 h
Description: as §1, §2

COc1ccc(-c2ccc3nnc(-c4ccccc4OC)n3c2)c(OC)c1 [Example 36, 6-(2,4-Dimethoxyphenyl)-3-(2-methoxyphenyl)-[1,2,4]triazolo[4,3-a]pyridine]
IC50 [1]: 29 nM | IC50 [2]: 78 nM | IC50 [3]: 315 nM | IC50 [4]: 74 nM

COc1ccc(-c2ccc3nnc(-c4ccccc4OC)n3c2)cn1 [Example 15, 3-(2-Methoxyphenyl)-6-(6-methoxypyridin-3-yl)-[1,2,4]triazolo[4,3-a]pyridine]
IC50 [1]: 1110 nM | IC50 [2]: 1730 nM | IC50 [3]: 2010 nM | IC50 [4]: 1030 nM

CCOc1ccc(-c2ccc3nnc(-c4ccccc4OC)n3c2)cc1C [Example 16, 6-(4-Ethoxy-3-methylphenyl)-3-(2-methoxyphenyl)-[1,2,4]triazolo[4,3-a]pyridine]
IC50 [1]: 33 nM | IC50 [2]: 107 nM | IC50 [3]: 152 nM | IC50 [4]: 160 nM

COc1ccccc1-c1nnc2ccc(-c3ccc(C)c([N+](=O)[O-])c3)cn12 [Example 10, 3-(2-Methoxyphenyl)-6-(4-methyl-3-nitrophenyl)-[1,2,4]triazolo[4,3-a]pyridine]
IC50 [1]: 618 nM | IC50 [2]: 382 nM | IC50 [3]: 1370 nM | IC50 [4]: > 10000 nM

COc1ccc(-c2ccc3nnc(-c4cc(S(N)(=O)=O)ccc4OC)n3c2)cc1 [Example 75, 6-(4-Methoxyphenyl)-3-(2-methoxy-5-sulfamoylphenyl)-[1,2,4]triazolo[4,3-a]pyridine]
IC50 [1]: > 10000 nM | IC50 [2]: > 10000 nM | IC50 [3]: > 10000 nM | IC50 [4]: > 10000 nM

COc1ccccc1-c1nnc2ccc(-c3ccc(C)cc3)cn12 [Example 22, 3-(2-Methoxyphenyl)-6-(4-methylphenyl)-[1,2,4]triazolo[4,3-a]pyridine]
IC50 [1]: 51 nM | IC50 [2]: 224 nM | IC50 [3]: 147 nM | IC50 [4]: 192 nM

COc1ccccc1-c1nnc2ccc(-c3ccc(C)c(N)c3)cn12 [Example 44, 6-(3-Amino-4-methylphenyl)-3-(2-methoxyphenyl)-[1,2,4]triazolo[4,3-a]pyridine]
IC50 [1]: 20 nM | IC50 [2]: 29 nM | IC50 [3]: 48 nM | IC50 [4]: 54 nM

COc1ccc(-c2ccc3nnc(-c4ccccc4)n3c2)cc1 [Example 68, 6-(4-Methoxyphenyl)-3-phenyl-[1,2,4]triazolo[4,3-a]pyridine]
IC50 [1]: 755 nM | IC50 [2]: 5030 nM | IC50 [3]: 2940 nM | IC50 [4]: 7750 nM

COc1ccc(-c2ccc3nnc(-c4c(OC)ccc(Br)c4OC)n3c2)cc1 [Example 65, 3-(3-Bromo-2,6-dimethoxyphenyl)-6-(4-methoxyphenyl)-[1,2,4]triazolo[4,3-a]pyridine]
IC50 [1]: 199 nM | IC50 [2]: 944 nM | IC50 [3]: 569 nM | IC50 [4]: 2460 nM

COc1ccc(-c2ccc3nnc(-c4ccc(OC)c(OC)c4OC)n3c2)cc1 [Example 72, 6-(4-Methoxyphenyl)-3-(2,3,4-trimethoxyphenyl)-[1,2,4]triazolo[4,3-a]pyridine]
IC50 [1]: 4140 nM | IC50 [2]: > 10000 nM | IC50 [3]: 8160 nM | IC50 [4]: > 10000 nM

COc1ccccc1-c1nnc2ccc(-c3cc(OC)c(OC)c(OC)c3)cn12 [Example 29, 3-(2-Methoxyphenyl)-6-(3,4,5-trimethoxyphenyl)-[1,2,4]triazolo[4,3-a]pyridine]
IC50 [1]: > 10000 nM | IC50 [2]: > 10000 nM | IC50 [3]: > 10000 nM | IC50 [4]: > 10000 nM

COc1ccc(-c2ccc3nnc(-c4c(OC)cccc4OC)n3c2)cc1 [Example 61, 3-(2,6-Dimethoxyphenyl)-6-(4-methoxyphenyl)-[1,2,4]triazolo[4,3-a]pyridine]
IC50 [1]: 258 nM | IC50 [2]: 949 nM | IC50 [3]: 2920 nM | IC50 [4]: 2560 nM

COc1ccc(-c2ccc3nnc(-c4ccc(OC)cc4)n3c2)cc1 [Example 64, 3,6-Bis(4-methoxyphenyl)-[1,2,4]triazolo[4,3-a]pyridine]
IC50 [1]: 150 nM | IC50 [2]: 568 nM | IC50 [3]: 341 nM | IC50 [4]: 641 nM

CNc1ccccc1-c1nnc2ccc(-c3ccc(OC)cc3)cn12 [Example 79, 6-(4-Methoxyphenyl)-3-(2-methylaminophenyl)-[1,2,4]triazolo[4,3-a]pyridine]
IC50 [1]: 69 nM | IC50 [2]: 122 nM | IC50 [3]: 73 nM | IC50 [4]: 167 nM

COc1ccc(-c2cc(C)c3nnc(-c4ccccc4OC)n3c2)cc1 [Example 55, 3-(2-Methoxyphenyl)-6-(4-methoxyphenyl)-8-methyl-[1,2,4]triazolo[4,3-a]pyridine]
IC50 [1]: 58 nM | IC50 [2]: 88 nM | IC50 [3]: 260 nM | IC50 [4]: 122 nM

COc1ccccc1-c1nnc2ccc(-c3cccc(O)c3)cn12 [Example 12, 6-(3-Hydroxyphenyl)-3-(2-methoxyphenyl)-[1,2,4]triazolo[4,3-a]pyridine]
IC50 [1]: > 10000 nM | IC50 [2]: 2950 nM | IC50 [3]: > 10000 nM | IC50 [4]: 7180 nM

COc1ccc(-c2ccc3nnc(-c4cccc(OC)c4)n3c2)cc1 [Example 77, 3-(3-Methoxyphenyl)-6-(4-methoxyphenyl)-[1,2,4]triazolo[4,3-a]pyridine]
IC50 [1]: 962 nM | IC50 [2]: 2210 nM | IC50 [3]: 1950 nM | IC50 [4]: 4880 nM

COc1ccccc1-c1nnc2ccc(-c3ccc4c(c3)OCO4)cn12 [Example 14, 6-(Benzo[d][1,3]dioxol-5-yl)-3-(2-methoxyphenyl)-[1,2,4]triazolo[4,3-a]pyridine]
IC50 [1]: 110 nM | IC50 [2]: 797 nM | IC50 [3]: 1440 nM | IC50 [4]: 1270 nM

COc1ccc(-c2ccc3nnc(-c4ccccc4OC)n3c2)cc1OC [Example 31, 6-(3,4-Dimethoxyphenyl)-3-(2-methoxyphenyl)-[1,2,4]triazolo[4,3-a]pyridine]
IC50 [1]: 492 nM | IC50 [2]: 474 nM | IC50 [3]: 765 nM | IC50 [4]: 241 nM

COc1cc(-c2ccc3nnc(-c4ccccc4OC)n3c2)ccc1O [Example 56, 6-(4-Hydroxy-3-methoxyphenyl)-3-(2-methoxyphenyl)-[1,2,4]triazolo[4,3-a]pyridine]
IC50 [1]: 1820 nM | IC50 [2]: 706 nM | IC50 [3]: 1480 nM | IC50 [4]: > 10000 nM

COc1ccc([N+](=O)[O-])cc1-c1nnc2ccc(-c3ccc(OC)c([N+](=O)[O-])c3)cn12 [Example 42, 6-(4-Methoxy-3-nitrophenyl)-3-(2-methoxy-5-nitrophenyl)-[1,2,4]triazolo[4,3-a]pyridine]
IC50 [1]: 230 nM | IC50 [2]: 312 nM | IC50 [3]: 279 nM | IC50 [4]: 489 nM

COc1ccc(-c2ccc3nnc(-c4cc(OC)ccc4OC)n3c2)cc1 [Example 62, 3-(2,5-Dimethoxyphenyl)-6-(4-methoxyphenyl)-[1,2,4]triazolo[4,3-a]pyridine]
IC50 [1]: 42 nM | IC50 [2]: 77 nM | IC50 [3]: 156 nM | IC50 [4]: 142 nM

COc1ccc(-c2ccc3nnc(-c4cccc(OC)c4OC)n3c2)cc1 [Example 73, 3-(2,3-Dimethoxyphenyl)-6-(4-methoxyphenyl)-[1,2,4]triazolo[4,3-a]pyridine]
IC50 [1]: 3210 nM | IC50 [2]: 2350 nM | IC50 [3]: 5320 nM | IC50 [4]: > 10000 nM

COc1ccccc1-c1nnc2ccc(-c3cccc(N)c3)cn12 [Example 45, 6-(3-Aminophenyl)-3-(2-methoxyphenyl)-[1,2,4]triazolo[4,3-a]pyridine hydrochloride]
IC50 [1]: 829 nM | IC50 [2]: 1250 nM | IC50 [3]: 678 nM | IC50 [4]: 2930 nM

COc1ncc(-c2ccc3nnc(-c4ccccc4OC)n3c2)cn1 [Example 18, 3-(2-Methoxyphenyl)-6-(2-methoxypyrimidin-5-yl)-[1,2,4]triazolo[4,3-a]pyridine]
IC50 [1]: > 10000 nM | IC50 [2]: > 10000 nM | IC50 [3]: > 10000 nM | IC50 [4]: > 10000 nM

COc1ccccc1-c1nnc2ccc(-c3ccc(OCc4ccccc4)c(C)c3)cn12 [Example 37, 6-(4-Benzyloxy-3-methylphenyl)-3-(2-methoxyphenyl)-[1,2,4]triazolo[4,3-a]pyridine]
IC50 [1]: 3340 nM | IC50 [2]: 3560 nM | IC50 [3]: 9340 nM | IC50 [4]: 7120 nM

COc1ccc(-c2ccc3nnc(-c4cc(OC)c(OC)cc4OC)n3c2)cc1 [Example 69, 6-(4-Methoxyphenyl)-3-(2,4,5-trimethoxyphenyl)-[1,2,4]triazolo[4,3-a]pyridine]
IC50 [1]: 307 nM | IC50 [2]: 915 nM | IC50 [3]: 834 nM | IC50 [4]: 833 nM
